Consider 30 compounds from patent US20240336594A1, “SIX-MEMBERED ARYL OR HETEROARYL AMIDES, AND COMPOSITION AND USE THEREOF” (BETTA PHARMACEUTICALS CO., LTD, priority 2021, published 2024).

Molecules are shown by their SMILES.

In one assay the target is T1, MALT1 (Homo sapiens, UniProt Q9UDY8).
T1 sequence (Q9UDY8 1-824): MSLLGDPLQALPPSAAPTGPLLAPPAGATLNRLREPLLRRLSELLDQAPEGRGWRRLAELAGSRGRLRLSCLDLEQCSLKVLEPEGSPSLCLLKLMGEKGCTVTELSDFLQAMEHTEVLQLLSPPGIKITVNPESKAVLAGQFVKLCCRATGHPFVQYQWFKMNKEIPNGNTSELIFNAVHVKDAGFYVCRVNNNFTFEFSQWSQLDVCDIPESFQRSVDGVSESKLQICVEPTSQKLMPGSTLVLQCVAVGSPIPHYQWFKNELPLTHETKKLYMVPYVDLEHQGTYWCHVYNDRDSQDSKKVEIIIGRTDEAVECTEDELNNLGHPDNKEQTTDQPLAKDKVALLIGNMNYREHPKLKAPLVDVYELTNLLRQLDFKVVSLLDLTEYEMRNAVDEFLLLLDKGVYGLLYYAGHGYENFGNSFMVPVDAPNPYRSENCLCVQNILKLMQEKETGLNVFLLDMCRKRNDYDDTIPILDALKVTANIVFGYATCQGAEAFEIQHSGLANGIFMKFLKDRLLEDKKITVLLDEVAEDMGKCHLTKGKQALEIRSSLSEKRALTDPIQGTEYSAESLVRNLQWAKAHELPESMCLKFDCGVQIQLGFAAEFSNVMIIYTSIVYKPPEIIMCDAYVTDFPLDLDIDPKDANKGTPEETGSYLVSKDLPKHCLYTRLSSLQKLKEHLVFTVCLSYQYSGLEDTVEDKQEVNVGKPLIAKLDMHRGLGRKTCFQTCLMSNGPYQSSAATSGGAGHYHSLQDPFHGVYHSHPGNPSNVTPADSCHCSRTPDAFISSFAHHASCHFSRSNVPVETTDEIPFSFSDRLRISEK
As to the kind of experiment: MALT1 protease inhibition assay (AMC-labeled peptide, fluorescence 360/460). The conditions noted are these: substrate Ac-LRSR-AMC, 15 min preincubation, 90 min at 25° C. It is filed as biochemical. Summed up: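 Recombinant MALT1 preincubated with test compounds (10-point 1:3 dilutions in DMSO, duplicates) for 15 min at 25 °C in citrate-containing protease buffer with DTT, then AMC-labeled peptide added for 90 min at 25 °C. Inhibition normalized to no-compound (max) and no-enzyme (min) wells; IC50 from curve fit.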
In the case of `Nc1ccccc1-c1cc(Cl)c(C(=O)Nc2cnc(-n3nccn3)c(Cl)c2)cc1F` [Example A109, 2′-amino-5-chloro-N-(5-chloro-6-(2H-1,2,3-triazol-2-yl)pyridin-3-yl)-2-fluoro-[1,1′-biphenyl]-4-carboxamide], the concentration for half-maximal inhibition (IC50) (as a rule, the concentration that gives 50% inhibition) was at most 10 nM.

For the compound `Nc1ccccc1-c1cc(F)c(C(=O)Nc2cnc(-n3nccn3)c(C(F)(F)F)c2)cc1Cl` [Example A110], the IC50 was at most 10 nM.

Take `Nc1cnc(F)c(Br)c1-c1cc(Cl)c(C(=O)Nc2cnc(-n3nccn3)c(C(F)(F)F)c2)cc1F` [Example A521, N-(6-(2H-1,2,3-triazol-2-yl)-5-(trifluoromethyl)pyridin-3-yl)-4-(5-amino-3-bromo-2-fluoropyridin-4-yl)-2-chloro-5-fluorobenzamide]: the IC50 was at most 10 nM.

`C#Cc1cnc(C)c(N)c1-c1cc(Cl)c(C(=O)Nc2cnc(-n3nccn3)c(C(F)(F)F)c2)cc1F` [Example A551, N-(6-(2H-1,2,3-triazol-2-yl)-5-(trifluoromethyl)pyridin-3-yl)-4-(3-amino-5-ethynyl-2-methylpyridin-4-yl)-2-chloro-5-fluorobenzamide] yielded a 50% inhibitory concentration (IC50) of at most 10 nM.

In the case of `C#Cc1cnc(F)c(N)c1-c1cc(Cl)c(C(=O)Nc2cnc(-n3nccn3)c(C(F)(F)F)c2)cc1F` [Example A552, N-(6-(2H-1,2,3-triazol-2-yl)-5-(trifluoromethyl)pyridin-3-yl)-4-(3-amino-5-ethynyl-2-fluoropyridin-4-yl)-2-chloro-5-fluorobenzamide], the concentration for half-maximal inhibition (IC50) was at most 10 nM.

Compound `C#Cc1cnc(Cl)c(N)c1-c1cc(Cl)c(C(=O)Nc2cnc(-n3nccn3)c(C(F)(F)F)c2)cc1F` [Example A553] yielded an IC50 of at most 10 nM.

Regarding `C#Cc1cnc(C#N)c(N)c1-c1cc(Cl)c(C(=O)Nc2cnc(-n3nccn3)c(C(F)(F)F)c2)cc1F` [Example A554, N-(6-(2H-1,2,3-triazol-2-yl)-5-(trifluoromethyl)pyridin-3-yl)-4-(3-amino-2-cyano-5-ethynylpyridin-4-yl)-2-chloro-5-fluorobenzamide], the IC50 is at most 10 nM.

`C#Cc1c(F)nc(C)c(N)c1-c1cc(Cl)c(C(=O)Nc2cnc(-n3nccn3)c(C(F)(F)F)c2)cc1F` [Example A556, N-(6-(2H-1,2,3-triazol-2-yl)-5-(trifluoromethyl)pyridin-3-yl)-4-(3-amino-5-ethynyl-6-fluoro-2-methylpyridin-4-yl)-2-chloro-5-fluorobenzamide] displayed an IC50 of at most 10 nM.

`C#Cc1c(F)nc(F)c(N)c1-c1cc(Cl)c(C(=O)Nc2cnc(-n3nccn3)c(C(F)(F)F)c2)cc1F` [Example A557, N-(6-(2H-1,2,3-triazol-2-yl)-5-(trifluoromethyl)pyridin-3-yl)-4-(3-amino-5-ethynyl-2,6-difluoropyridin-4-yl)-2-chloro-5-fluorobenzamide] had an IC50 of at most 10 nM.

The compound `Nc1c(Cl)ncc(Br)c1-c1cc(Cl)c(C(=O)Nc2cnc(-n3nccn3)c(C(F)(F)F)c2)cc1F` [Example A558] yielded an IC50 of at most 10 nM.

The test system of the next assay is IL-2 secretion of Jurkat cells (PMA/Ionomycin inducing). As to the kind of experiment: ELISA method to detect IL-2 secretion induced by PMA/Ionomycin. To be noted: Homo sapiens, 20 h. It is filed as cell-based. Here is the method: 12.5*10^3 Jurkat cells were seeded on a 96-well plate and incubated with various concentrations of compound solution for 30 min. Then, 500×PMA/Ionomycin stimulating factor was diluted with culture medium and added to the cell plate. […] The final concentrations of the compounds were 10000, 3333.3, 1111.1, 370.4, 123.5, 41.2, 13.7, 4.6, 1.5, 0 nM (The final concentration of DMSO is 0.5%). After incubation for 20 h, the supernatant was collected via centrifugation. The final IL-2 concentration was detected by ELISA method (IL-2 Duoset, R&D Systems, DY202). The signal value of each sample at a wavelength of 450 nm was collected by EnVision multifunctional microplate reader and converted to the IL-2 concentration via the ELISACalc.exe software. The IL-2 secretion inhibitory activity IC50 was fitted by GraphPad Prism software. The cell viability was tested simultaneously using the Cell-Titer Glo kit.
The compounds of the present invention show strong inhibitory effect on IL-2 secretion of Jurkat cells (PMA/Ionomycin inducing).
On the technique in general: An ELISA detects its analyte on a solid surface through an enzyme-linked reagent.
The compound `Cc1nc(-c2ccc(F)cc2Cl)ncc1C(=O)Nc1cnc(-n2nccn2)c(C(F)(F)F)c1` [Example A12] came in with an IC50 of 285 nM.

Compound `Cc1cc(-c2ccc(F)cc2Cl)ccc1C(=O)Nc1cnc(-n2nccn2)c(C(F)(F)F)c1` [Example A16, N-(6-(2H-1,2,3-triazol-2-yl)-5-(trifluoromethyl)pyridin-3-yl)-2′-chloro-4′-fluoro-3-methyl-[1,1′-biphenyl]-4-carboxamide] returned an IC50 of 194 nM.

Take `O=C(Nc1cnc(-n2nccn2)c(C(F)(F)F)c1)c1ccc(-c2ccc(F)cc2Cl)cc1Cl` [Example A17, N-(6-(2H-1,2,3-triazol-2-yl)-5-(trifluoromethyl)pyridin-3-yl)-2′,3-dichloro-4′-fluoro-[1,1′-biphenyl]-4-carboxamide]: the 50% inhibitory concentration (IC50) is 191 nM.

`O=C(Nc1cnc(-n2nccn2)c(C(F)(F)F)c1)c1cnc(-c2ccc(F)cc2Cl)cc1Cl` [Example A18, N-(6-(2H-1,2,3-triazol-2-yl)-5-(trifluoromethyl)pyridin-3-yl)-4-chloro-6-(2-chloro-4-fluorophenyl)nicotinamide] registered a concentration for half-maximal inhibition (IC50) of 598 nM.

`O=C(Nc1cnc(-n2nccn2)c(C(F)(F)F)c1)c1ccc(-c2ccc(F)cc2Cl)cc1C1CC1` [Example A19, N-(6-(2H-1,2,3-triazol-2-yl)-5-(trifluoromethyl)pyridin-3-yl)-2′-chloro-3-cyclopropyl-4′-fluoro-[1,1′-biphenyl]-4-carboxamide] showed an IC50 of 632 nM.

Regarding `O=C(Nc1cnc(-n2nccn2)c(Cl)c1)c1ccc(-c2ccccc2Cl)cc1Cl` [Example A42], the IC50 worked out at 471 nM.

In the case of `COc1ccccc1-c1ccc(C(=O)Nc2cnc(-n3nccn3)c(C(F)(F)F)c2)c(C)c1` [Example A64], the half-maximal inhibitory concentration (IC50) stood at 463 nM.

In turn, `COc1ccccc1-c1cc(Cl)c(C(=O)Nc2cnc(-n3nccn3)c(C(F)(F)F)c2)cc1F` [Example A67] showed an IC50 of 325 nM.

As for `Nc1ccccc1-c1cc(Cl)c(C(=O)Nc2cnc(-n3nccn3)c(C(F)(F)F)c2)cc1F` [Example A69], half-maximal inhibition (IC50) required 195 nM.

`O=C(Nc1cnc(-n2nccn2)c(Cl)c1)c1ccc(-c2ccncc2Cl)cc1Cl` [Example A100] gave an IC50 of 369 nM.

In turn, `O=C(Nc1cnc(-n2nccn2)c(Cl)c1)c1ccc(-c2ccc(F)cc2Br)cc1Cl` [Example A102] had an IC50 of 154 nM.

In turn, `COc1cc(F)ccc1-c1ccc(C(=O)Nc2cnc(-n3nccn3)c(Cl)c2)c(Cl)c1` [Example A104] gave an IC50 of 294 nM.

`O=C(Nc1cnc(-n2nccn2)c(C(F)(F)F)c1)c1cc(F)c(-c2ccc(F)cc2Cl)cc1Cl` [Example A105]: half-maximal inhibition (IC50) was put at 134 nM.

Consider `O=C(Nc1cnc(-n2nccn2)c(C(F)(F)F)c1)c1cc(F)c(-c2ccccc2Cl)cc1Cl` [Example A106, N-(6-(2H-1,2,3-triazol-2-yl)-5-(trifluoromethyl)pyridin-3-yl)-2′,5-dichloro-2-fluoro-[1,1′-biphenyl]-4-carboxamide], for which the IC50 was 265 nM.

In the case of `Nc1ccccc1-c1cc(Cl)c(C(=O)Nc2cnc(-n3nccn3)c(Cl)c2)cc1F` [Example A109, 2′-amino-5-chloro-N-(5-chloro-6-(2H-1,2,3-triazol-2-yl)pyridin-3-yl)-2-fluoro-[1,1′-biphenyl]-4-carboxamide], the IC50 was determined as 94 nM.

`Nc1ccccc1-c1cc(F)c(C(=O)Nc2cnc(-n3nccn3)c(C(F)(F)F)c2)cc1Cl` [Example A110] showed an IC50 of 186 nM.

On to `Nc1ccccc1-c1cc(Cl)c(C(=O)Nc2cnc(-n3nccn3)c(C(F)(F)F)c2)cc1Cl` [Example A111, N-(6-(2H-1,2,3-triazol-2-yl)-5-(trifluoromethyl)pyridin-3-yl)-2′-amino-2,5-dichloro-[1,1′-biphenyl]-4-carboxamide], for which the concentration for half-maximal inhibition (IC50) was 283 nM.

Compound `COc1cc(F)ccc1-c1cc(Cl)c(C(=O)Nc2cnc(-n3nccn3)c(C(F)(F)F)c2)cc1F` [Example A112, N-(6-(2H-1,2,3-triazol-2-yl)-5-(trifluoromethyl)pyridin-3-yl)-5-chloro-2,4′-difluoro-2′-methoxy-[1,1′-biphenyl]-4-carboxamide] showed a 50% inhibitory concentration (IC50) of 234 nM.

As for `COc1ccccc1-c1cc(C)c(C(=O)Nc2cnc(-n3nccn3)c(Cl)c2)cc1F` [Example A117, N-(5-chloro-6-(2H-1,2,3-triazol-2-yl)pyridin-3-yl)-2-fluoro-2′-methoxy-5-methyl-[1,1′-biphenyl]-4-carboxamide], the half-maximal inhibitory concentration (IC50) was 184 nM.

Consider `COc1cc(F)ccc1-c1cc(C)c(C(=O)Nc2cnc(-n3nccn3)c(Cl)c2)cc1F` [Example A118, N-(5-chloro-6-(2H-1,2,3-triazol-2-yl)pyridin-3-yl)-2,4′-difluoro-2′-methoxy-5-methyl-[1,1′-biphenyl]-4-carboxamide], for which inhibition was half-maximal at 82 nM (IC50).

Consider `C#Cc1cnccc1-c1cc(Cl)c(C(=O)Nc2cnc(C(=O)NCC(F)(F)F)c(Cl)c2)cc1F` [Example A429, 3-chloro-5-(2-chloro-4-(3-ethynylpyridin-4-yl)-5-fluorobenzamido)-N-(2,2,2-trifluoroethyl)picolinamide], for which the IC50 stood at 259 nM.

The compound `CC(=O)c1cncc(N)c1-c1cc(Cl)c(C(=O)Nc2cnc(-n3nccn3)c(Cl)c2)cc1F` [Example A529, 4-(3-acetyl-5-aminopyridin-4-yl)-2-chloro-N-(5-chloro-6-(2H-1,2,3-triazol-2-yl)pyridin-3-yl)-5-fluorobenzamide] yielded an IC50 of 208 nM.
